The results in this text go back to BindingDB's records for doi:10.1021/bi701954p (University of Maryland Biotechnology Institute, 2008).

Values joined by “and” are separate entries in the source; they are usually repeats but may differ in a detail not shown here. Identical values can stand only once.

The Ki is the dissociation constant of the complex between target and ligand, obtained from inhibition or displacement. A lower Ki goes with tighter binding.

The assay deals with T1, Oxaloacetate decarboxylase (Pseudomonas aeruginosa (strain ATCC 15692 / DSM 22644 / CIP 104116 / JCM 14847 / LMG 12228 / 1C / PRS 101 / PAO1), UniProt Q9HUU1).
T1 sequence (Q9HUU1 whole entry): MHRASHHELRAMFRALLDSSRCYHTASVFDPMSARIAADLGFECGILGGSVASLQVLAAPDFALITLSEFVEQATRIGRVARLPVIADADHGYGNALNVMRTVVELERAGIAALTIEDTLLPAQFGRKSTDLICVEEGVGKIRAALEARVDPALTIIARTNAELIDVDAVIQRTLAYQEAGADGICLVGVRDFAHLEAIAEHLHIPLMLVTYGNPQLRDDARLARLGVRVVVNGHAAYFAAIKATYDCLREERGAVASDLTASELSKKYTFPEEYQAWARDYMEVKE
Put plainly: Inhibition Assay. The text has this: Competitive inhibition constant determined for PA4872 catalyzed oxaloacetate decarboxylation.
For the compound `O=C(O)C(=O)O`, the Ki is 0.043 mM. With `O=C(O)C(O)(O)C(F)(F)C(=O)O` [3,3-Difluoroxaloacetate], the affinity, expressed as Ki, was 0.45 mM. With `CC(=O)CC(=O)C(=O)O` [Acetopyruvate], the inhibition constant (Ki) was 1.09 mM and 0.56 mM.

With `O=C(O)C(=O)CP(=O)(O)O` [Phosphonopyruvate], the inhibitory constant (Ki) was 3 mM.

In the case of `CC(=O)C(=O)O` [Pyruvate], the Ki was 7.2 mM. For `CCCC(=O)C(=O)O` [alpha-ketovalerate], the Ki is 6.7 mM and 3.2 mM.
